# Molecular target: P2X7 (Homo sapiens (Human), UniProt Q99572)
# Assay: P2X7 antagonism in human PBMCs (LPS + Bz-ATP induced IL-1β release, ELISA)
# Assay type: cell-based
# Conditions: 10 μM compound, LPS 30 ng/ml + 0.5 mM Bz-ATP
# Method: Human blood was collected using a blood donor program. PBMCs were isolated from blood using a Ficoll density gradient technique. Briefly, blood was laid on Ficoll solution and centrifuged at RT for 20 minutes at 2000 rpm. The buffy layer (between red blood cells and plasma) was carefully collected by aspiration, washed with PBS and centrifuged again at 1500 rpm for 15 minutes. The resulting cell pellet was washed and plated on 96 well-plates for experiments. […] Lipopolysaccharide (LPS) (30 ng/ml) was added to each well and incubated for 1 hour. Test compounds were then added and incubated for 30 minutes. The P2X7 agonist, 2′(3′)-O-(4-benzoylbenzoyl) adenosine 5′ triphosphate (Bz-ATP) was then added at a final concentration of 0.5 mM (PBMC) or 1 mM (blood). Cells were incubated for an additional 1.5 hours. At that point, supernatant was collected and stored for IL-1β assay using manufacturer's protocol for enzyme-linked immunosorbent assay (ELISA). Data was expressed as percent control, where control is defined as the difference in IL-1β release in LPS+Bz-ATP samples and LPS only samples. Data was plotted as response (% control) versus concentration to generate IC50 values.
# Sequence of P2X7 (Q99572 whole entry): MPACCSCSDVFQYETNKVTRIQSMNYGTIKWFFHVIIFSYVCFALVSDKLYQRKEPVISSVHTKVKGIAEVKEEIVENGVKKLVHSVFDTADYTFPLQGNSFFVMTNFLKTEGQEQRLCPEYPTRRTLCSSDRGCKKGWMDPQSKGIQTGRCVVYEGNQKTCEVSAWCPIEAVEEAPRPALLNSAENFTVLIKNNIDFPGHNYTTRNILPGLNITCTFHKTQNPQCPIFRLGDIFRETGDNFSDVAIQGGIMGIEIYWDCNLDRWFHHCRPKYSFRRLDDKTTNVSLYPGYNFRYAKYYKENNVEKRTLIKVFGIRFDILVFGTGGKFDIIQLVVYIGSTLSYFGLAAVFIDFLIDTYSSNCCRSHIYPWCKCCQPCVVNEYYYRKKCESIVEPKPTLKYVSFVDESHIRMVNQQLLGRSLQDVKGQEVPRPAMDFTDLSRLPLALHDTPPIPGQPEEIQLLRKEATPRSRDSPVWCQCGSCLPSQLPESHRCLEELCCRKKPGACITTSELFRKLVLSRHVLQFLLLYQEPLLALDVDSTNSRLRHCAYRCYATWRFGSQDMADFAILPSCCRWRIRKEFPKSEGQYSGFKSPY
row,Structure (SMILES),PBMC 10 μM (% control)
1,"C[C@@H]1c2ncn(-c3ccccn3)c2CCN1C(=O)c1cccc(C(F)(F)F)c1F (single isomer, unassigned) [Example 42, (4R*)-5-{[2-Fluoro-3-(trifluoromethyl)phenyl]carbonyl}-4-methyl-1-pyridin-2-yl-4,5,6,7-tetrahydro-1H-imidazo[4,5-c]pyridine]",5.8
2,"Cc1nc(-n2nnc3c2CCN(C(=O)c2cccc(C(F)(F)F)c2Cl)C3C)ncc1F (single isomer, unassigned) [Example 306, (S*)-(2-chloro-3-(trifluoromethyl)phenyl)(1-(5-fluoro-4-methylpyrimidin-2-yl)-4-methyl-6,7-dihydro-1H-[1,2,3]triazolo[4,5-c]pyridin-5(4H)-yl)methanone]",2.5
3,"Cc1cc(C)nc(-n2nnc3c2CCN(C(=O)c2cccc(C(F)(F)F)c2Cl)C3C)n1 (stereo not drawn) [Example 253, (2-Chloro-3-(trifluoromethyl)phenyl)(1-(4,6-dimethylpyrimidin-2-yl)-4-methyl-6,7-dihydro-1H-[1,2,3]triazolo[4,5-c]pyridin-5(4H)-yl)methanone]",−2.6
4,"CC1c2nnn(-c3ncccn3)c2CCN1C(=O)c1ccc(Cl)cc1Cl (stereo not drawn) [Example 283, (2,4-dichlorophenyl)(4-methyl-1-(pyrimidin-2-yl)-6,7-dihydro-1H-[1,2,3]triazolo[4,5-c]pyridin-5(4H)-yl)methanone]",−6.3
5,"C[C@@H]1c2nnn(-c3ccc(F)cc3)c2C[C@H](C)N1C(=O)c1cccc(C(F)(F)F)c1Cl [Example 287, (2-chloro-3-(trifluoromethyl)phenyl)((4R,6 S)-1-(4-fluorophenyl)-4,6-dimethyl-6,7-dihydro-1H-[1,2,3]triazolo[4,5-c]pyridin-5(4H)-yl)methanone]",−4.1
6,"CC1c2nn(COCC[Si](C)(C)C)c(-c3ncc(F)cn3)c2CCN1C(=O)c1cccc(C(F)(F)F)c1Cl (stereo not drawn) [Example 303, (2-chloro-3-(trifluoromethyl)phenyl)(3-(5-fluoropyrimidin-2-yl)-7-methyl-2-((2-(trimethylsilyl)ethoxy)methyl)-4,5-dihydro-2H-pyrazolo[3,4-c]pyridin-6(7H)-yl)methanone]",−1.6

# From patent publication US10150765B2, “P2X7 modulators” (Janssen Pharmaceutica NV, priority 2013, dated 2018)
